Data taken from US20170275287A1, “NOVEL N2, N4, N7, 6-TETRASUBSTITUTED PTERIDINE-2,4,7-TRIAMINE AND 2, 4, 6, 7-TETRASUBSTITUTED PTERIDINE COMPOUNDS AND METHODS OF SYNTHESIS AND USE THEREOF” (Janus Biotherapeutics, Inc., priority 2014, published 2017).

Target: T1, TLR8 (Homo sapiens, UniProt Q9NR97)
T1 construct: PBMCs were isolated from unpurified buffy coat from healthy human donors; host or cells: primary human PBMCs
T1 sequence (Q9NR97 27-1041): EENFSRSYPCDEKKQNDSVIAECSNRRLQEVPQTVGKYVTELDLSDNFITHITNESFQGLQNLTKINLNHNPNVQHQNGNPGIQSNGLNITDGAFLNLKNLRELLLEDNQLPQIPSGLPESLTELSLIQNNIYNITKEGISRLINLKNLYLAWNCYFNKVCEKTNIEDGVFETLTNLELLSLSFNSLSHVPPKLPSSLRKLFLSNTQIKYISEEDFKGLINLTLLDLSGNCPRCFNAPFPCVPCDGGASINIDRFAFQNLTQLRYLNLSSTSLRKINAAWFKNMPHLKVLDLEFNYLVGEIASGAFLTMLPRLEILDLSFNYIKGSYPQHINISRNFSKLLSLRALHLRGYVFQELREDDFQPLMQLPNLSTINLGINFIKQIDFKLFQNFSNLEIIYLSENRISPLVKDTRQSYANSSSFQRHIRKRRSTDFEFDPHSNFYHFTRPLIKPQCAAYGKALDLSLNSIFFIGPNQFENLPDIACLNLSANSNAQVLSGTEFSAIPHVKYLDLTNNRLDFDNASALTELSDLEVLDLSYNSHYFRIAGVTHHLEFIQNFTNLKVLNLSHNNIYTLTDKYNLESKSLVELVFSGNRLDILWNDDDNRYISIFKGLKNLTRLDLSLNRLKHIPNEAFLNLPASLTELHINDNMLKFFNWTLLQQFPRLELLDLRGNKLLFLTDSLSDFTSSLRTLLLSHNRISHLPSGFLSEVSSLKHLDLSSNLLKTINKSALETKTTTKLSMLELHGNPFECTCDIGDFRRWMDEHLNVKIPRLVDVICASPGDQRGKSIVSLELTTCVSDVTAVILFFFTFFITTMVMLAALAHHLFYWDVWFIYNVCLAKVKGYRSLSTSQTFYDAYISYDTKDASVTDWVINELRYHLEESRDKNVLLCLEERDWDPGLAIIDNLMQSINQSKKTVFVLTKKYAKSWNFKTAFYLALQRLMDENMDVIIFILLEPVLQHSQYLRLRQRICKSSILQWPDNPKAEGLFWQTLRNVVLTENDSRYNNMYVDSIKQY
Assay: TLR8 antagonist assay in human PBMCs (ORN1075, TNFα ELISA)
Format: cell-based
Conditions: human PBMC, 0.5 μM ORN1075, TNFα readout
Procedure: PBMCs were isolated from unpurified buffy coat from healthy human donors (Blood Research Components, LLC). For antagonist testing, cells were plated on 96-well U-bottom plates at 3×10^6 cells/ml. Antagonist compounds were added to cells in duplicate wells and titrated from 10 μM in 1:3 serial dilutions (8 antagonist concentrations tested in total). After approximately 30 minutes, cells were stimulated with agonist compound (see table 2 for agonist concentrations). After stimulation, cells were incubated overnight at 37° C. To increase the stability of the ssRNA, 3 μg/ml DOTAP (Roche) was added to ORN1075 agonist solutions. All dilutions were made in RPMI-1640 media (Sigma, cat.# R7388)+5% human male AB sera (Sigma, cat.# H4522)+1× Penicillin/Streptomycin solution (VWR, cat.#82026-730).
TLR activity was measured in PBMCs and neutrophils by ELISA using cytokine readouts specific for the TLR of interest.
TNFα was used as a readout for TLR8 activity in PBMCs and neutrophils stimulated with ORN1075 (See Table 3 for concentrations) using the ELISA Max™ Deluxe Set Human TNFα kit (BioLegend, cat.#430206). Supernatant from PBMCs was diluted 1:50 and from neutrophils at 1:3 in 1× Assay Diluent (BioLegend). ELISAs were run according to the kit product specifications. Absorbance at 450 nm was recorded using a Molecular Devices SpectraMax340PC plate reader. The IC50 for each antagonist was subsequently calculated following the method described below.
Raw ELISA datasets for each 96-well plate, consisting of absorbance readings at […], were first imported in Microsoft Excel to calculate the average absorbance for each standard or antagonist concentration. The averaged data was then imported into SigmaPlot v.11.0 where a standard curve was calculated and used to extrapolate the relative concentration of TLR readout (TNFα, IFNα, etc.) produced. The dose-response curve of each antagonist was then plotted with SigmaPlot v.11.0 on a Log scale. Concentrations of TLR readout were converted to a percentage relative to the average maximum concentration for that ELISA plate in Microsoft Excel. The IC50 for each antagonist was then determined with the SigmaPlot regression wizard using a 4-parameter Hill equation. Each antagonist was tested in a minimum of 3 independent experiments and IC50 results were compiled and averaged using Microsoft Excel.

Compound | IC50
CN1CCN(c2nc(NCCN3CCOCC3)c3ncc(-c4ccccc4)nc3n2)CC1 [JB6059] | 273 nM
CN1CCN(c2nc3nc(-c4ccccc4)nc(NCCN4CCOCC4)c3nc2OCCN2CCOCC2)CC1 [JB6116] | 658 nM
CN1CCN(c2nc(NCCN3CCOCC3)c3nc(Cl)c(NCCN4CCOCC4)nc3n2)CC1 [JB6121, 6-chloro-2-(4-methylpiperazin-1-yl)-N^4,N^7-bis(2-morpholinoethyl)pteridine-4,7-diamine] | 514 nM
CCOc1nc2c(NCCN3CCCC3)nc(-c3ccccc3)nc2nc1N1CCN(C)CC1 [JB6131] | 78 nM
Clc1nc2c(NCCN3CCOCC3)nc(NCc3ccccc3)nc2nc1NCCN1CCOCC1 [JB6172] | 246 nM
CCOc1nc2c(NCCN3CCOCC3)nc(NCc3ccccc3)nc2nc1NCCN1CCOCC1 [JB6180] | 151 nM
CCCCNc1nc(NCCN2CCOCC2)c2nc(SCC)c(NCCN3CCOCC3)nc2n1 [JB6185] | 136 nM

Further lines, results first:

IC50 | Compound
754 nM | CCCCNc1nc(NCCN2CCOCC2)c2nc(Cl)c(NCCN3CCOCC3)nc2n1 [JB6140]
263 nM | C[C@@H]1CN(CCNc2nc3nc(N4CCN(C)CC4)nc(NCCN4C[C@@H](C)O[C@@H](C)C4)c3nc2Cl)C[C@H](C)O1 [JB6143]
7300 nM | Clc1nc2c(NCCN3CCOCC3)nc(N3CCOCC3)nc2nc1NCCN1CCOCC1 [JB6147]
219 nM | COCCN1CCN(c2nc(NCCN3CCOCC3)c3nc(Cl)c(NCCN4CCOCC4)nc3n2)CC1 [JB6160]
